This note sets out measurements from patent US12195482B1 (Arcus Biosciences, Inc., priority 2022, dated 2025).

Usually IC50 stands for the concentration at which inhibition is half-maximal.

The target in one assay is T1, recombinant human TYRO3 (Homo sapiens, UniProt Q06418).
T1 construct: purchased Invitrogen
T1 sequence (Q06418 41-890): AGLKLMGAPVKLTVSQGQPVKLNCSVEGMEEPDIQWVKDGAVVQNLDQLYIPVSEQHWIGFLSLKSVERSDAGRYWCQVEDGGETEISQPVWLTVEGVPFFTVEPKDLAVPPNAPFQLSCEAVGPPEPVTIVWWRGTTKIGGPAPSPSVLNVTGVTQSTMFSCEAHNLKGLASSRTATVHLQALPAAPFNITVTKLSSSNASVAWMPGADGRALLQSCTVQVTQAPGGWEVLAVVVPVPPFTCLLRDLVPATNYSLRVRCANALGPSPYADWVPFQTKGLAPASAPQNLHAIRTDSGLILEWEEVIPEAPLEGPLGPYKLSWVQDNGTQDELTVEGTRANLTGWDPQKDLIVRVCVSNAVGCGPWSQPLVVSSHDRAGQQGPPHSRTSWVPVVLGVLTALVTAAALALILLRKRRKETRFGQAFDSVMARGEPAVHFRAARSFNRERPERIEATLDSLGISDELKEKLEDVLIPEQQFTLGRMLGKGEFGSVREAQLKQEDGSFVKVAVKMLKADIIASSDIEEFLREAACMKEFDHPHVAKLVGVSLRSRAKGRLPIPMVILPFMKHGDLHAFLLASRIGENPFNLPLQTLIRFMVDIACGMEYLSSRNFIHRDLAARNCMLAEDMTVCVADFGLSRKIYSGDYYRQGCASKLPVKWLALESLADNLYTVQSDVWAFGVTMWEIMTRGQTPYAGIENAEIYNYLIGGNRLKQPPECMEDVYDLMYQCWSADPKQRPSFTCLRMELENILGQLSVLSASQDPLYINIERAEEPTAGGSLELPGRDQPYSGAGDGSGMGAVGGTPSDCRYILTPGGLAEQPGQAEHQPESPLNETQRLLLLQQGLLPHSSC
The experiment in a line: Biochemical potency, HTRF KinEASE-TK kinase assay. As to conditions: 1 nM TYRO3, 700 μM ATP. Put shortly:
(§1)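 Enzyme (AXL 5 nM; TYRO3 or MER 1 nM final) was preincubated with compound for 1 h at RT, then reacted for 2 h at RT with 800 nM biotinylated TK substrate and 700 µM ATP in HEPES pH 7.4, MgCl2, DTT, BSA, 1% DMSO. Percent activity came from the HTRF 665/620 ratio.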
In general terms: TR-FRET usually uses a lanthanide donor and a delayed reading to cut background.

For a further assay, the target named is T2, recombinant human MER (Homo sapiens, UniProt Q12866).
T2 construct: purchased Invitrogen
T2 sequence (Q12866 21-999): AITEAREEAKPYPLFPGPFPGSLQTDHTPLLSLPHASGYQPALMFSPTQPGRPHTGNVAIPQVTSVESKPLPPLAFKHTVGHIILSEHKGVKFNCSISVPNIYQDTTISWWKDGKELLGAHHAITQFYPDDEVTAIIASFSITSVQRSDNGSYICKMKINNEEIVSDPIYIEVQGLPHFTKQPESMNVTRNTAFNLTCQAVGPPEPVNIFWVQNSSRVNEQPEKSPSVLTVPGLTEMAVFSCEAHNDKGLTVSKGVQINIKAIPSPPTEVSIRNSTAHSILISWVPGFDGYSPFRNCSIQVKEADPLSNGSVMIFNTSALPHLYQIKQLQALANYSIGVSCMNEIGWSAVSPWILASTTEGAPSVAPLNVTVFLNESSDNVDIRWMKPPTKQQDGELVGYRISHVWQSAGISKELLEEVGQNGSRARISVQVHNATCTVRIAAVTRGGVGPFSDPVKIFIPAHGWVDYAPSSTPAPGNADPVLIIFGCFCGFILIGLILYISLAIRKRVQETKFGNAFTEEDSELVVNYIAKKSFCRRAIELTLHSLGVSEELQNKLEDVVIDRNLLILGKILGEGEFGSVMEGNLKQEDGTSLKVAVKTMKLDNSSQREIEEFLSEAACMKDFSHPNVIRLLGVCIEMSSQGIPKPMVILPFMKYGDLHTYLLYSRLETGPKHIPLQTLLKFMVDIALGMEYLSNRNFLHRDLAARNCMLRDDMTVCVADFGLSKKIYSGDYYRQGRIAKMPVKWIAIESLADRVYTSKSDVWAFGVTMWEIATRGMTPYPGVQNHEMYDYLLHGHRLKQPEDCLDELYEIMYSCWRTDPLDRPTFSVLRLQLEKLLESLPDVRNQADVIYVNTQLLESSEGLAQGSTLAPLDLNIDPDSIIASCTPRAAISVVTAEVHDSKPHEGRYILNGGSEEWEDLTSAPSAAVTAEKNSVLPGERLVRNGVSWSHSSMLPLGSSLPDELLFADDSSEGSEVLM
Kind of assay: Biochemical potency, HTRF KinEASE-TK kinase assay. As to conditions: 1 nM MER, 700 μM ATP. Put shortly:
as §1

Consider `Cc1cccnc1-c1ccc(-c2n[nH]c3ncc(-c4ccc5c(c4)CC[C@@H](N4C6COCC4C6)CC5)cc23)cc1` [Example 2, 6-[(7S)-2-{3-[4-(3-Methylpyridin-2-yl)phenyl]-2H-pyrazolo[3,4-b]pyridin-5-yl}-6,7,8,9-tetrahydro-5H-benzo[7]annulen-7-yl]-3-oxa-6-azabicyclo[3.1.1]heptane], for which the values for the IC50 on recombinant human TYRO3 and at recombinant human MER were below 100 nM and 100 to 1000 nM, respectively.

As to `Clc1cccnc1-c1ccc(-c2c[nH]c3ncc(-c4ccc5c(c4)CC[C@@H](N4C6COCC4C6)CC5)cc23)cc1` [Example 43, 6-[(7S)-2-{3-[4-(3-Chloropyridin-2-yl)phenyl]-1H-pyrrolo[2,3-b]pyridin-5-yl}-6,7,8,9-tetrahydro-5H-benzo[7]annulen-7-yl]-3-oxa-6-azabicyclo[3.1.1]heptane], the IC50 on recombinant human TYRO3 and at recombinant human MER was 100 to 1000 nM each time.

In the case of `Cc1cc(C)c(-c2ccc(-c3c[nH]c4ncc(-c5ccc6c(c5)CC[C@@H](N5C7COCC5C7)CC6)cc34)cc2)nn1` [Example 80, 6-[(7S)-2-{3-[4-(4,6-Dimethylpyridazin-3-yl)phenyl]-1H-pyrrolo[2,3-b]pyridin-5-yl}-6,7,8,9-tetrahydro-5H-benzo[7]annulen-7-yl]-3-oxa-6-azabicyclo[3.1.1]heptane], the IC50 at recombinant human TYRO3 was 100 to 1000 nM; at recombinant human MER, below 100 nM.

For `Cc1cccnc1-c1ccc(-c2c[nH]c3ncc(-c4ccc5c(c4)CC[C@@H](N4C6COCC4C6)CC5)cc23)cc1` [Example 1, 6-[(7S)-2-{3-[4-(3-Methylpyridin-2-yl)phenyl]-1H-pyrrolo[2,3-b]pyridin-5-yl}-6,7,8,9-tetrahydro-5H-benzo[7]annulen-7-yl]-3-oxa-6-azabicyclo[3.1.1]heptane], the IC50 at recombinant human TYRO3 and at recombinant human MER was below 100 nM each time.

With `COc1ccnc(-c2ccc(-c3c[nH]c4ncc(-c5ccc6c(c5)CC[C@@H](N5C7COCC5C7)CC6)cc34)cc2)c1C` [Example 86, 6-[(7S)-3-[3-[4-(4-Methoxy-3-methylpyridin-2-yl)phenyl]-1H-pyrrolo[2,3-b]pyridin-5-yl]-6,7,8,9-tetrahydro-5H-benzo[7]annulen-7-yl]-3-oxa-6-azabicyclo[3.1.1]heptane], the IC50 on recombinant human TYRO3 and on recombinant human MER was 100 to 1000 nM in each case.

As for `CS(=O)(=O)c1ccccc1-c1ccc(-c2c[nH]c3ncc(-c4ccc5c(c4)CC[C@@H](N4C6COCC4C6)CC5)cc23)cc1` [Example 93, 6-[(7S)-2-(3-{2′-Methanesulfonyl-[1,1′-biphenyl]-4-yl}-1H-pyrrolo[2,3-b]pyridin-5-yl)-6,7,8,9-tetrahydro-5H-benzo[7]annulen-7-yl]-3-oxa-6-azabicyclo[3.1.1]heptane], the IC50 at recombinant human TYRO3 and at recombinant human MER was 100 to 1000 nM each time.

As to `Cc1cnc(C)c(-c2ccc(-c3c[nH]c4ncc(-c5ccc6c(c5)CC[C@@](C)(N5CCC[C@H]5C)CC6)cc34)cc2)n1` [Example 58, 2,5-Dimethyl-3-(4-{5-[(7S)-7-methyl-7-[(2R)-2-methylpyrrolidin-1-yl]-6,7,8,9-tetrahydro-5H-benzo[7]annulen-2-yl]-1H-pyrrolo[2,3-b]pyridin-3-yl}phenyl)pyrazine], the IC50 at recombinant human TYRO3 and at recombinant human MER was 100 to 1000 nM each time.

Take `COc1cccc(-c2ccc(-c3n[nH]c4ncc(-c5ccc6c(c5)CC[C@@H](N5C7COCC5C7)CC6)cc34)cc2)n1` [Example 162, 6-[(7S)-2-{3-[4-(6-Methoxypyridin-2-yl)phenyl]-2H-pyrazolo[3,4-b]pyridin-5-yl}-6,7,8,9-tetrahydro-5H-benzo[7]annulen-7-yl]-3-oxa-6-azabicyclo[3.1.1]heptane]: the IC50 at recombinant human TYRO3 and on recombinant human MER was above 1000 nM each time.

As for `N#Cc1cccnc1-c1ccc(-c2n[nH]c3ncc(-c4ccc5c(c4)CC[C@@H](N4C6COCC4C6)CC5)cc23)cc1` [Example 52, 2-(4-{5-[(7S)-7-{3-Oxa-6-azabicyclo[3.1.1]heptan-6-yl}-6,7,8,9-tetrahydro-5H-benzo[7]annulen-2-yl]-1H-pyrazolo[3,4-b]pyridin-3-yl}phenyl)pyridine-3-carbonitrile], the IC50 on recombinant human TYRO3 and on recombinant human MER was 100 to 1000 nM throughout.
